According to ChEMBL document CHEMBL5634136 (Eur J Med Chem, 2023):
pIC50: −log10 of the molar value. One block for each compound: values may come before it. Active and inactive are the calls of the source. No cut-off for these calls is given here.

Legend:
[1] = target: T1, Epidermal growth factor receptor (Homo sapiens, UniProt P00533, C797S/EX19DEL/T790M); test: Inhibition of recombinant EGFR Del19/T790M/C797S mutant (unknown origin) in presence of ATP by TR-FRET assay
[2] = target: Epidermal growth factor receptor (Homo sapiens, UniProt P00533, C797S/L858R/T790M); test: Inhibition of EGFR L858R/T790M/C797S mutant (unknown origin)
[3] = Induction of apoptosis in mouse KC-0116 cells assessed as early apoptotic cells at 0.1 uM incubated for 48 hrs by annexin V-FITC/ PI staining based flow cytometry (reference value: 8.09 %); assay type: functional
[4] = test system: KC-0116; test: Induction of cell cycle arrest in mouse KC-0116 cells assessed as accumulation of cells at G1 phase at 1 uM incubated for 24 hrs by RNase/PI staining based flow cytometry; assay type: functional
[5] = target: Epidermal growth factor receptor (Mus musculus) (UniProt Q01279); test: Inhibition of EGFR in mouse KC-0116 cells assessed as downregulation of AKT protein expression level incubated for 24 hrs by Western blotting analysis; assay type: cell-based
[6] = test system: HepG2; test: Antiproliferative activity against human HepG2 cells harboring VEGFR assessed as inhibition of cell growth incubated for 72 hrs by MTT assay; assay type: functional, cell-based; details: HepG2, 72 h
[7] = target: Epidermal growth factor receptor (Mus musculus) (UniProt Q01279); test: Inhibition of EGFR in mouse KC-0122 cells assessed as downregulation of ERK protein expression level at 1 uM incubated for 24 hrs by Western blotting analysis; assay type: cell-based
[8] = Induction of apoptosis in mouse KC-0116 cells assessed as viable cells at 1 uM incubated for 48 hrs by annexin V-FITC/ PI staining based flow cytometry (reference value: 93.27 %); assay type: functional; details: Mus musculus, KC-0116, read-out: Activity
[9] = Induction of apoptosis in mouse KC-0116 cells assessed as late apoptotic cells at 1 uM incubated for 48 hrs by annexin V-FITC/ PI staining based flow cytometry (reference value: 1 %); assay type: functional
[10] = Induction of apoptosis in mouse KC-0116 cells assessed as necrotic cells at 1 uM incubated for 48 hrs by annexin V-FITC/ PI staining based flow cytometry (reference value: 0.04 %); assay type: functional
[11] = target: Epidermal growth factor receptor (Mus musculus) (UniProt Q01279); test: Inhibition of EGFR in mouse KC-0122 cells assessed as downregulation of EGFR phosphorylation level at 1 uM incubated for 24 hrs by Western blotting analysis; assay type: cell-based
[12] = Antiproliferative activity against mouse KC-0122 cells assessed as inhibition of cell growth incubated for 72 hrs by MTT assay; assay type: functional, cell-based; details: KC-0122, 72 h
[13] = Induction of apoptosis in mouse KC-0116 cells assessed as early apoptotic cells at 10 uM incubated for 48 hrs by annexin V-FITC/ PI staining based flow cytometry (reference value: 8.09 %); assay type: functional
[14] = Toxicity in BALB/c mouse xenografted with mouse KC-0116 cells assessed as change in body weight at 40 mg/kg,po administrated once daily for 10 days; assay type: organism-based; details: in vivo, 240 h, time 10 day
[15] = target: Epidermal growth factor receptor (Mus musculus) (UniProt Q01279); test: Inhibition of EGFR in mouse KC-0122 cells assessed as downregulation of AKT protein expression level incubated for 24 hrs by Western blotting analysis; assay type: cell-based
[16] = Induction of apoptosis in mouse KC-0116 cells assessed as viable cells at 0.1 uM incubated for 48 hrs by annexin V-FITC/ PI staining based flow cytometry (reference value: 93.27 %); assay type: functional; details: read-out: Activity
[17] = Toxicity in BALB/c mouse xenografted with mouse KC-0116 cells assessed as change in body weight at 10 mg/kg,po administrated once daily for 10 days; assay type: organism-based; details: in vivo, 240 h, time 10 day
[18] = target: Epidermal growth factor receptor (Mus musculus) (UniProt Q01279); test: Inhibition of EGFR in mouse KC-0122 cells assessed as downregulation of AKT protein expression level at 1 uM incubated for 24 hrs by Western blotting analysis; assay type: cell-based
[19] = test system: NCI-H1975; test: Antiproliferative activity against human NCI-H1975 cells harboring EGFR L858R/T790M mutant assessed as inhibition of cell growth incubated for 72 hrs by MTT assay; assay type: functional, cell-based; details: NCI-H1975, 72 h
[20] = Induction of apoptosis in mouse KC-0116 cells assessed as late apoptotic cells at 10 uM incubated for 48 hrs by annexin V-FITC/ PI staining based flow cytometry (reference value: 1 %); assay type: functional
[21] = target: Epidermal growth factor receptor (Mus musculus) (UniProt Q01279); test: Inhibition of EGFR in mouse KC-0116 cells assessed as downregulation of ERK protein expression level at 1 uM incubated for 24 hrs by Western blotting analysis; assay type: cell-based
[22] = target: Epidermal growth factor receptor (Mus musculus) (UniProt Q01279); test: Inhibition of EGFR in mouse KC-0116 cells assessed as downregulation of AKT protein expression level at 1 uM incubated for 24 hrs by Western blotting analysis; assay type: cell-based
[23] = target: T1, Epidermal growth factor receptor; test: Inhibition of EGFR Del19/T790M/C797S mutant (unknown origin)
[24] = Antitumor activity against mouse KC-0116 cells xenografted in BALB/c mouse assessed as tumor growth inhibition at 40 mg/kg,po administrated once daily for 10 days relative to control; assay type: functional; details: KC-0116, 240 h, time 10 day, read-out: TGI
[25] = Antitumor activity against mouse KC-0116 cells xenografted in BALB/c mouse assessed as tumor growth inhibition at 10 mg/kg,po administrated once daily for 10 days relative to control; assay type: functional; details: KC-0116, 240 h, time 10 day, read-out: TGI
[26] = target: Epidermal growth factor receptor (Mus musculus) (UniProt Q01279); test: Inhibition of EGFR in mouse KC-0122 cells assessed as downregulation of EGFR phosphorylation level incubated for 24 hrs by Western blotting analysis; assay type: cell-based
[27] = Induction of apoptosis in mouse KC-0116 cells assessed as necrotic cells at 0.1 uM incubated for 48 hrs by annexin V-FITC/ PI staining based flow cytometry (reference value: 0.04 %); assay type: functional
[28] = target: Epidermal growth factor receptor (Mus musculus) (UniProt Q01279); test: Inhibition of EGFR in mouse KC-0122 cells assessed as downregulation of ERK protein expression level incubated for 24 hrs by Western blotting analysis; assay type: cell-based
[29] = target: Epidermal growth factor receptor (Mus musculus) (UniProt Q01279); test: Inhibition of EGFR in mouse KC-0116 cells assessed as downregulation of EGFR phosphorylation level at 1 uM incubated for 24 hrs by Western blotting analysis; assay type: cell-based
[30] = Induction of apoptosis in mouse KC-0116 cells assessed as early apoptotic cells at 1 uM incubated for 48 hrs by annexin V-FITC/ PI staining based flow cytometry (reference value: 8.09 %); assay type: functional
[31] = test system: A-431; test: Antiproliferative activity against human A-431 cells harboring wild type EGFR assessed as inhibition of cell growth incubated for 72 hrs by MTT assay; assay type: functional, cell-based; details: A-431, 72 h
[32] = Antiproliferative activity against mouse KC-0116 cells assessed as inhibition of cell growth incubated for 72 hrs by MTT assay; assay type: functional, cell-based; details: KC-0116, 72 h
[33] = Induction of apoptosis in mouse KC-0116 cells assessed as viable cells at 10 uM incubated for 48 hrs by annexin V-FITC/ PI staining based flow cytometry (reference value: 93.27 %); assay type: functional; details: read-out: Activity
[34] = Induction of apoptosis in mouse KC-0116 cells assessed as necrotic cells at 10 uM incubated for 48 hrs by annexin V-FITC/ PI staining based flow cytometry (reference value: 0.04 %); assay type: functional
[35] = test system: KC-0116; test: Antitumor activity against mouse KC-0116 cells xenografted in BALB/c mouse assessed as reduction in tumor weight at 40 mg/kg,po administrated once daily for 10 days; assay type: functional, organism-based; details: time 10.0 day
[36] = test system: HCC827; test: Antiproliferative activity against human HCC827 cells harboring EGFR Del19 mutant assessed as inhibition of cell growth incubated for 72 hrs by MTT assay; assay type: functional, cell-based; details: HCC827, 72 h
[37] = Induction of apoptosis in mouse KC-0116 cells assessed as late apoptotic cells at 0.1 uM incubated for 48 hrs by annexin V-FITC/ PI staining based flow cytometry (reference value: 1 %); assay type: functional
[38] = target: Epidermal growth factor receptor (Mus musculus) (UniProt Q01279); test: Inhibition of EGFR in mouse KC-0116 cells assessed as downregulation of ERK protein expression level incubated for 24 hrs by Western blotting analysis; assay type: cell-based
[39] = target: Epidermal growth factor receptor (Mus musculus) (UniProt Q01279); test: Inhibition of EGFR in mouse KC-0116 cells assessed as downregulation of EGFR phosphorylation level incubated for 24 hrs by Western blotting analysis; assay type: cell-based

Chain of Epidermal growth factor receptor (Mus musculus) (Q01279 whole entry): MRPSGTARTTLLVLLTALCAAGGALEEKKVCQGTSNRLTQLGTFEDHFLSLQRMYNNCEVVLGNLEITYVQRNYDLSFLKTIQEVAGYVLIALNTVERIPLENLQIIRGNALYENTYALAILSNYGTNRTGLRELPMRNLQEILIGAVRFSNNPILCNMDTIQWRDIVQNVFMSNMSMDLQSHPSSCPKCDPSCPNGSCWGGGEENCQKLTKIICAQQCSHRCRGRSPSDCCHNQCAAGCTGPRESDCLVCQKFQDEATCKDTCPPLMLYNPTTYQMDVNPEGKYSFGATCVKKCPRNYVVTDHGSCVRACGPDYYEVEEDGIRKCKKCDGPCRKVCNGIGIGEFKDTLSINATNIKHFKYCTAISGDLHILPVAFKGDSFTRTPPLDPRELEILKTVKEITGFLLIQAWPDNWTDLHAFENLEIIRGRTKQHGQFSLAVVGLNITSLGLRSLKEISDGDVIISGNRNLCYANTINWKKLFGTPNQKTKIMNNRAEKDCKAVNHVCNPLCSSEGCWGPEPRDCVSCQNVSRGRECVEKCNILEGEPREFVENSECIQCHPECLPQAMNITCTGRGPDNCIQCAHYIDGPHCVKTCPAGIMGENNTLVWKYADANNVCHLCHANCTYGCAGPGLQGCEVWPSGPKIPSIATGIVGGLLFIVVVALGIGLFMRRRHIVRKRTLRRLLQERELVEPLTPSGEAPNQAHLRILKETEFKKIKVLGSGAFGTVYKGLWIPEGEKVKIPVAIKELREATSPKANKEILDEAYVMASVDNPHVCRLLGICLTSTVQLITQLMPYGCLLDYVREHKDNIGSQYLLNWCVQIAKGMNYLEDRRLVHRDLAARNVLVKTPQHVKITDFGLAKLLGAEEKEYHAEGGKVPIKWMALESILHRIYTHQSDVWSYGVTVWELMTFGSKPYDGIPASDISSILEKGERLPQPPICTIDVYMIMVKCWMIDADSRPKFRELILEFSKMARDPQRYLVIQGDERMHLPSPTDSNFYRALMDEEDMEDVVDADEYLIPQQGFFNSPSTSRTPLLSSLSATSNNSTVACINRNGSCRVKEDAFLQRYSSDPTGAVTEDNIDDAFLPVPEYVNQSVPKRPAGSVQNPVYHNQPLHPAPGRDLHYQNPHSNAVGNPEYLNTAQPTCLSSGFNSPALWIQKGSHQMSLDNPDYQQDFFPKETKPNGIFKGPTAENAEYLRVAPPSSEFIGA
T1 sequence (P00533 whole entry, looked up, stated change not applied): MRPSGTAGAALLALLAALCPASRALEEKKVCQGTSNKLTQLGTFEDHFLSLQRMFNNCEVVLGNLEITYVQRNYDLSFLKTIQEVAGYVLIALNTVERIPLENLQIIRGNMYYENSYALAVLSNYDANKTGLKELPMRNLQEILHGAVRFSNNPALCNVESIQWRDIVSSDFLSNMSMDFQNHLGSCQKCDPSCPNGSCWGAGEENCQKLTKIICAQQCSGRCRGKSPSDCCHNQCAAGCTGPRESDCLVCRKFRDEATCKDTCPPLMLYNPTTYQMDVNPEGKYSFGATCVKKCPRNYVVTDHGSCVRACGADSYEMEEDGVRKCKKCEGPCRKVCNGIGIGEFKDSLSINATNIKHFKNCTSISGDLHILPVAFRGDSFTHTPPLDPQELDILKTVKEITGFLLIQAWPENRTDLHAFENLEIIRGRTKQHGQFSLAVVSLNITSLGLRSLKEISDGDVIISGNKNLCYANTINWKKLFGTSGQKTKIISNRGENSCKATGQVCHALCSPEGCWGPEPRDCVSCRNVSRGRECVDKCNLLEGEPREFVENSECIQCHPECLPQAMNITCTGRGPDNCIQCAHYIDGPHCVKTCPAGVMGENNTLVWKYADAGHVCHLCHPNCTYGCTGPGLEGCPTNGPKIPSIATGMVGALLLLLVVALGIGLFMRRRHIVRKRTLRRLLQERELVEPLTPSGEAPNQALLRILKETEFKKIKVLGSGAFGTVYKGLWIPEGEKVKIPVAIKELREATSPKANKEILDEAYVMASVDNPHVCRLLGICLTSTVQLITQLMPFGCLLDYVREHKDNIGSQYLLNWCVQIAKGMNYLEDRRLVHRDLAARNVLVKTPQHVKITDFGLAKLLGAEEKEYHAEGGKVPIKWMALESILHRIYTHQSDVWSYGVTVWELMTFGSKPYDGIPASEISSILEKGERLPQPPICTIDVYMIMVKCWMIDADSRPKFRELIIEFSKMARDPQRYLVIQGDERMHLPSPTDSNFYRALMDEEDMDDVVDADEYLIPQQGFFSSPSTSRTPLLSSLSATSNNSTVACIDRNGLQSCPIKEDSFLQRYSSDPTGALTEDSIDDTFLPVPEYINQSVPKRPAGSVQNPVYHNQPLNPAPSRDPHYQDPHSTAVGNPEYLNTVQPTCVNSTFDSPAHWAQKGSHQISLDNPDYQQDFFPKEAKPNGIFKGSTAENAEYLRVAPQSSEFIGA
Chain of Epidermal growth factor receptor (Homo sapiens, UniProt P00533, C797S/L858R/T790M) (P00533 25-1210 T790M/C797S/L858R limits assumed): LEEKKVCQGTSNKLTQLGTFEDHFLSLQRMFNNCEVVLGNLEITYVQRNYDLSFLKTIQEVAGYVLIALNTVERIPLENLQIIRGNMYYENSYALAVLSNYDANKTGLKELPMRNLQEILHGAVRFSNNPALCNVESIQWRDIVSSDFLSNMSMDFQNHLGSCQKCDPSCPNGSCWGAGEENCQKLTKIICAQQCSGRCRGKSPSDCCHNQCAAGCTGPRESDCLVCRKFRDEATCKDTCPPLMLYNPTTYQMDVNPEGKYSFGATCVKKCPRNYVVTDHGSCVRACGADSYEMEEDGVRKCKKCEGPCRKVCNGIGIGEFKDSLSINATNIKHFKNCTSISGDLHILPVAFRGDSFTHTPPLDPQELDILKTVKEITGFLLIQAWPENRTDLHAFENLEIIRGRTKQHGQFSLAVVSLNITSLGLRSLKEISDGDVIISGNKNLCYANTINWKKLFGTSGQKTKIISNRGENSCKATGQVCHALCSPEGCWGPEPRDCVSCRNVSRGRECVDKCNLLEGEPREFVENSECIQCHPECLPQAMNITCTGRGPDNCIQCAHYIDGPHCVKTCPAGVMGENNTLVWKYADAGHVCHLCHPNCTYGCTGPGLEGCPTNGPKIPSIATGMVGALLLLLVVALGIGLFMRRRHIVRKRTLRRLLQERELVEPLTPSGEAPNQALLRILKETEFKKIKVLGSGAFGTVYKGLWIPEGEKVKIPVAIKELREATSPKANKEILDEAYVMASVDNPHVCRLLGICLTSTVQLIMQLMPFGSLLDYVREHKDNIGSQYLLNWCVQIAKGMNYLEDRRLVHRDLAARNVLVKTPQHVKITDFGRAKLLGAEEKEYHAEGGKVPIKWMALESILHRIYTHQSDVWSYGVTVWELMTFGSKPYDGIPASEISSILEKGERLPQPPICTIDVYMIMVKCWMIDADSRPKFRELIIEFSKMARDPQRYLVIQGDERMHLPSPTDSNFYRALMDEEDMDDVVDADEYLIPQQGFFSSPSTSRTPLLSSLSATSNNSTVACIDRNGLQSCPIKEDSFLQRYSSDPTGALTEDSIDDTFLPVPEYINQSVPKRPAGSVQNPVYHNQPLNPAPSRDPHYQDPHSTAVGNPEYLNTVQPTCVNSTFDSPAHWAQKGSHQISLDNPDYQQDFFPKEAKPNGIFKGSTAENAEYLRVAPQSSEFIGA

SMILES: CC(C)n1c2cc(Nc3ccnc(-c4cnn(S(=O)(=O)C5CC5)c4)n3)ncc2c2c(OCC(F)(F)F)cc(N3CCN(C)CC3)cc21
- pIC50 [1]: 9.55

- pIC50 [2]: 6.95
- inhibition [5]: Dose-Dependent Effect
- pIC50 [6]: 5.75
- inhibition [7]: Active
- inhibition [11]: Active
- inhibition [15]: Dose-Dependent Effect
- inhibition [18]: Active
- pIC50 [19]: 6.00
- inhibition [21]: Active
- inhibition [22]: Active
- pIC50 [23]: 7.74
- inhibition [26]: Dose-Dependent Effect
- inhibition [28]: Dose-Dependent Effect
- inhibition [29]: Active
- pIC50 [31]: 5.70
- pIC50 [36]: 6.80
- inhibition [38]: Dose-Dependent Effect
- inhibition [39]: Dose-Dependent Effect
SMILES: CN(C)C1CCN(c2ccc(Nc3nccc(-c4cn(C)c5ccccc45)n3)cc2NS(C)(=O)=O)CC1
- Activity [3]: 5.5%
- Activity [4]: Active
- viability at 1 µM [8]: 72.9%
- Activity [9]: 2.66%
- Activity [10]: 0.17%
- pIC50 [12]: 6.77
- Activity [13]: 91.42%
- Activity [14]: Non-Toxic
- viability at 0.1 µM [16]: 92.9%
- Activity [17]: Non-Toxic
- Activity [20]: 0.77%
- inhibition in vivo at 40 mg/kg [24]: 77.6%
- inhibition in vivo at 10 mg/kg [25]: 28.4%
- Activity [27]: 0.08%
- Activity [30]: 25.29%
- pIC50 [32]: 6.80
- viability at 10 µM [33]: 1.53%
- Activity [34]: 0.09%
- Activity [35]: Active
- Activity [37]: 1.42%
